Square brackets hold non-standard residues; d marks the D form. Peptide text beside a SMILES is read from it. * marks the point of attachment. X4 = NCCCC[C@H](NC(=O)[C@H](CS)NC(=O)CNC(=O)[C@@H](N)CCCCNC(=O)C*)C(N)=O; X8 = NC(=O)[C@H](CCC(=O)O)NC(=O)[C@H](CS)NC(=O)CNC(=O)[C@H](CS)NC(=O)C*; X2 = N=C(N)NCCC[C@H](NC(=O)[C@H](CS)NC(=O)CNC(=O)CNC(=O)C*)C(N)=O; X1 = NCCCC[C@H](NC(=O)[C@H](CS)NC(=O)CNC(=O)CNC(=O)C*)C(N)=O; NMeF = CN[C@@H](Cc1ccccc1)C(=O)O; hCys = N[C@@H](CCS)C(=O)O
Molecular target: T1, somatostatin receptors (Rattus norvegicus, UniProt P30680)
T1 construct: endogenous in cells; host or cells: AR42J rat pancreatic tumor cell line (membrane preparation)
Assay: Inhibition of binding of (125I-Tyr11)somatostatin-14 to AR42J rat pancreatic tumor cell membranes
Conditions: 0.5 nM (125I-Tyr11)somatostatin-14, 25 min at 30° C., Hill plots
Experimental: Inhibition of Binding of (^125 I-Tyr^11)somatostatin-14 to AR42J Rat Pancreatic Tumor Cell Membranes
The rat pancreatic tumor cell line AR42J which expresses the somatostatin receptor was cultured in Dulbecco's minimal essential media (DMEM) supplemented with 10% fetal bovine serum (FBS) and 8 mM glutamine in a humidified 5% CO2 atmosphere at 37° C. in T-flasks. Harvested cells were homogenized in cold 50 mM Tris-HCl buffer (pH 7.4) and the homogenate then centrifuged at 39,000 g for 10 min at 4° C. Pellets were washed once with buffer and then resuspended in an ice-cold solution of 10 mM Tris-HCl (pH 7.4). Equal aliquots of this cell membrane preparation were incubated with (^125 I-Tyr^11)somatostatin-14 (at a final concentration of 0.5 nM and 750,000 cpm/mL, at a specific activity of 2000 Ci/mmol, Amersham, Arlington Heights, Ill.) and peptide at a final concentration of from 10^-11 M to 10^-6 M in a solution of 50 mM HEPES (pH 7.4) containing 1% bovine serum albumin (BSA), 5 mM MgCl2, Trasylol (200,000 International Units), bacitracin (0.02 mg/mL) and phenylmethylsulfonylfluoride (0.02 mg/mL) for 25 min at 30° C. Using a filtration manifold, this mixture was filtered through a polyethyleneimine-washed GC/F filter (Whatman, Maidstone, England), and the residue remaining on the filter washed thrice with 5 mL cold HEPES buffer. The filter and a sample of the filter washings were then counted in a gamma counter. To assess non-specific binding, the assay was performed in the presence of unlabeled somatostatin-14 at 200 nM. Data analysis including Hill plots of the data provided inhibition constants (see Bylund & Yamamura, "Methods of receptor binding", in Methods in Neurotransmitter Receptor Analysis, Yamamura et al., eds., Raven Press: New York, 1990).

T1 sequence (P30680 whole entry): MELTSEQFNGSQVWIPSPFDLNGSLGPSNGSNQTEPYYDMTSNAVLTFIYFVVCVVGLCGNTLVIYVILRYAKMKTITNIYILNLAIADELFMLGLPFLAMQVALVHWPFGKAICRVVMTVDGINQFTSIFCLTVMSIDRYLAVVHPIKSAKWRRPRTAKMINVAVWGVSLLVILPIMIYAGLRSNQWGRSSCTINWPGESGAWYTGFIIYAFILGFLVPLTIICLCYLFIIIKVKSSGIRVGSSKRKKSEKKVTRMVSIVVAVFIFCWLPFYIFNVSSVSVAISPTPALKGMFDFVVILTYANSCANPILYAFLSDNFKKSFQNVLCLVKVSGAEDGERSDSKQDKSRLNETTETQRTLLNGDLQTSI

First: C[C@@H](O)[C@@H]1NC(=O)[C@H](CCCCN)NC(=O)[C@@H](Cc2c[nH]c3ccccc23)NC(=O)[C@H](Cc2ccc(O)cc2)NC(=O)[C@H](Cc2ccccc2)N(C)C(=O)[C@H](CCS)NC1=O [cyclo.(N--CH3)F.YWD KT.Hcy] (cyclo(KT[hCys][NMeF]Y[dW]))
Second: CC(C)[C@@H]1NC(=O)[C@H](CCCCN)NC(=O)[C@@H](Cc2c[nH]c3ccccc23)NC(=O)[C@H](Cc2ccc(O)cc2)NC(=O)[C@H](Cc2ccccc2)N(C)C(=O)[C@H](CCS)NC1=O [cyclo.(N--CH3)F.YWD KV.Hcy] (cyclo(KV[hCys][NMeF]Y[dW]))
The Ki of the first is higher: 0.26 nM for the first, under 0.01 nM for the second.

Compared with CC(C)[C@@H]1NC(=O)[C@H](CCCCN)NC(=O)[C@@H](Cc2c[nH]c3ccccc23)NC(=O)[C@H](Cc2ccc(O)cc2)NC(=O)[C@H](Cc2ccccc2)N(C)C(=O)[C@H](CCSCC(=O)NCCCC[C@H](N)C(=O)NCC(=O)N[C@@H](CS)C(=O)N[C@@H](CCCCN)C(N)=O)NC1=O [cyclo.(N--CH3)F.YWD KV.Hcy(CH2 CO.(ε-K)GCK.amide)] (cyclo([NMeF]Y[dW]KV[hCys](X4))), CC(C)[C@@H]1NC(=O)[C@H](CCCCN)NC(=O)[C@@H](Cc2c[nH]c3ccccc23)NC(=O)[C@H](Cc2ccc(O)cc2)NC(=O)[C@H](Cc2ccccc2)N(C)C(=O)[C@H](CCSCC(=O)NCC(=O)NCC(=O)N[C@@H](CS)C(=O)N[C@@H](CCCCN)C(N)=O)NC1=O [cyclo.(N--CH3)F.YWD KV.Hcy(CH2 CO.GGCK.amide)] (cyclo([NMeF]Y[dW]KV[hCys](X1))) is 1.7-fold lower in Ki: 4.2 nM for the first, 2.5 nM for the second. The second binds more tightly here.

Compared with CC(C)[C@@H]1NC(=O)[C@H](CCCCN)NC(=O)[C@@H](Cc2c[nH]c3ccccc23)NC(=O)[C@H](Cc2ccc(O)cc2)NC(=O)[C@H](Cc2ccccc2)N(C)C(=O)[C@H](CCSCC(=O)N[C@@H](CS)C(=O)NCC(=O)N[C@@H](CS)C(=O)N[C@@H](CCC(=O)O)C(N)=O)NC1=O [cyclo.(N--CH3)F.YWD KV.Hcy(CH2 CO.CGCE.amide)] (cyclo(KV[hCys](X8)[NMeF]Y[dW])), CC(C)[C@@H]1NC(=O)[C@H](CCCCN)NC(=O)[C@@H](Cc2c[nH]c3ccccc23)NC(=O)[C@H](Cc2ccc(O)cc2)NC(=O)[C@H](Cc2ccccc2)N(C)C(=O)[C@H](CCSCC(=O)NCC(=O)NCC(=O)N[C@@H](CS)C(=O)N[C@@H](CCCNC(=N)N)C(N)=O)NC1=O [cyclo.(N--CH3)F.YWD KV.Hcy(CH2 CO.GGCR.amide)] (cyclo([NMeF]Y[dW]KV[hCys](X2))) is 29-fold lower in Ki: 8.5 nM for the first, 0.29 nM for the second. The second binds more tightly here.

From patent publication US5932189A, “Cyclic peptide somatostatin analogs” (Diatech, Inc., priority 1994, dated 1999)
